According to patent publication US9730934B2, “Quinazoline derivatives substituted by aniline, preparation method and use thereof” (XUANZHU PHARMA CO., LTD., priority 2010, dated 2017):
Where a name gives a salt, the structure may show the parent alone.

What was measured:
Assay in all cases: In vitro enzyme inhibitory activity (Caliper mobility shift, FAM labeled peptide)
Assay type in all cases: biochemical
Details in all cases: 28° C., 1 h reaction
[1] = biological target: EGFR (Homo sapiens (Human), UniProt P00533)
EGFR, sequence (P00533 25-1210): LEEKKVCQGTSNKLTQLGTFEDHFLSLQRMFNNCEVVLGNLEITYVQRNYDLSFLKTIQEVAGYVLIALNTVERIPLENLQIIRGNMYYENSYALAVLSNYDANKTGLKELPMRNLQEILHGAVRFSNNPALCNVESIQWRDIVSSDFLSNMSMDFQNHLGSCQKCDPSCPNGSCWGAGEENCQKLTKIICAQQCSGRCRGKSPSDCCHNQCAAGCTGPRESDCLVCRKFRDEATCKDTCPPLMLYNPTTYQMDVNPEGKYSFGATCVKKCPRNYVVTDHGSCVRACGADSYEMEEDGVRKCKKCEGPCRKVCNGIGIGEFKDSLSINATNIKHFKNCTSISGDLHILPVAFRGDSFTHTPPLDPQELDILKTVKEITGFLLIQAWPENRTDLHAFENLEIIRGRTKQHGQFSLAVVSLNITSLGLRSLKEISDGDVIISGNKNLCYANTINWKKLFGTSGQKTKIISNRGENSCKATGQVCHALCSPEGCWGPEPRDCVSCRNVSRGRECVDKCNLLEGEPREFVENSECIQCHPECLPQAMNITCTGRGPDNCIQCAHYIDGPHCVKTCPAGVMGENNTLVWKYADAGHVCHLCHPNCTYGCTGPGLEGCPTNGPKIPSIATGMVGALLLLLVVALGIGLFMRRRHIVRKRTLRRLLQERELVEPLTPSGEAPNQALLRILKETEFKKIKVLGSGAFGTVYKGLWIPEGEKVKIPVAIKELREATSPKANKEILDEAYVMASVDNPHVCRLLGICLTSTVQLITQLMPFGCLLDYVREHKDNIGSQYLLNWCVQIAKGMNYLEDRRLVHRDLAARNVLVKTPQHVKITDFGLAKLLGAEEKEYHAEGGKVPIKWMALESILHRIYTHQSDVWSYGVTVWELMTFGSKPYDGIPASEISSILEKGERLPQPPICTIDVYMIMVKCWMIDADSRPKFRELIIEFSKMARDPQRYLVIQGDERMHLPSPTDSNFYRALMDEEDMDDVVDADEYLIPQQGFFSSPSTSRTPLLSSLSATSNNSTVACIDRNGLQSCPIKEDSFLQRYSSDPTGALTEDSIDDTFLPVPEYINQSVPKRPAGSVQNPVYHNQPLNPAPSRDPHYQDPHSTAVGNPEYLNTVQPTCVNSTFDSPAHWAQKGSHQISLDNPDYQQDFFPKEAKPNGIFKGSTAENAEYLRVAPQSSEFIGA
Method: (§1) In Vitro Enzyme Inhibitory Activity of the Present Compounds
EGFR: human epidermal growth factor receptor (Carna);
(§2) 1. Formulating the agents to be used in the assay
(§3) (6) 5-fold compound solutions (using 100% DMSO to formulate 50-fold compound solutions having different concentration gradients, and diluting with water by 10 times to obtain 5-fold compound solutions having different concentration gradients);
(§4) 2. Adding 5 μL of a 5-fold compound solution to a 384-well plate;
(§5) 3. Adding 10 μL of a 2.5-fold kinase solution to incubate for 10 min;
(§6) 4. Then adding 10 μL of a 2.5-fold peptide solution, and reacting at 28° C. for 1 h; and
(§7) 5. Finally, adding 25 μL of stop buffer to terminate the reaction, and reading the data with Caliper.
(§8) 6. Curve fitting to obtain an IC50 value. The calculated inhibition ratio (%)=(the maximum conversion rate−the conversion rate)/(the maximum conversion rate−the minimum conversion rate)×100
(§9) The curve fitting was conducted with the Xlfit software to obtain IC50 values.

[2] = biological target: HER2 (Homo sapiens (Human), UniProt P04626)
HER2, sequence (P04626 23-1255): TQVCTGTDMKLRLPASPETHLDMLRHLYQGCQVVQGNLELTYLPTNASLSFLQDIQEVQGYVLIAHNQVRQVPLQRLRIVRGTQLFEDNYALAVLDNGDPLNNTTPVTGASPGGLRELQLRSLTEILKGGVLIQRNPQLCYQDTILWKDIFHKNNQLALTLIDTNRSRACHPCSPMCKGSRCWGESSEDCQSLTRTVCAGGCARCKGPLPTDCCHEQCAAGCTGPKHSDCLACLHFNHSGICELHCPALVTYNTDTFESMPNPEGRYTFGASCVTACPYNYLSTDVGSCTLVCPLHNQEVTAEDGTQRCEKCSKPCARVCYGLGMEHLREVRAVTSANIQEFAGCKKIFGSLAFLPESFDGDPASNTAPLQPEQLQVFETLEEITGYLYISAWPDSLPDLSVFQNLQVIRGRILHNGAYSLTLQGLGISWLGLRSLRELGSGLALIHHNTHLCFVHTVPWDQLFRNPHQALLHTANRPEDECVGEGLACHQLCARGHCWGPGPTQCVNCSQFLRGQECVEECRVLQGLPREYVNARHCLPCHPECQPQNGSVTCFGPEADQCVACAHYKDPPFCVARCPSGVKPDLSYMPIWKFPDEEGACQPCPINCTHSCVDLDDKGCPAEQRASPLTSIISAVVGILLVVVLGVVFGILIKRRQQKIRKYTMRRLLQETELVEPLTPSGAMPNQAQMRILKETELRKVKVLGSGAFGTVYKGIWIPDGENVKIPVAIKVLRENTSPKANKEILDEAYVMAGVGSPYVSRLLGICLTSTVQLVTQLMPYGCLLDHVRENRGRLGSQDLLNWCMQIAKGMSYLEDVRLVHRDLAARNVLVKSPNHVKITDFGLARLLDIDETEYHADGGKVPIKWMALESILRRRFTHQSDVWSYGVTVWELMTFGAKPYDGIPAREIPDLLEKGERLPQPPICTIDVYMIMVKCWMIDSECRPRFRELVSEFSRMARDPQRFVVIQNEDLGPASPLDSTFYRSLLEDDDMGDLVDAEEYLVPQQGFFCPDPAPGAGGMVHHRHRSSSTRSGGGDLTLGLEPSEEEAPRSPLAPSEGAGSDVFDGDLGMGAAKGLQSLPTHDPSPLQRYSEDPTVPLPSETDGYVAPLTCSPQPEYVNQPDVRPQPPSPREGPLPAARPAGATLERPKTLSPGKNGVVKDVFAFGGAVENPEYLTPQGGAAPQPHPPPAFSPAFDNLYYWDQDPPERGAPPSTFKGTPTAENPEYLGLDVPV
Method: as §1
HER2: human epidermal growth factor receptor 2 (Carna);
as §2, §3, §4, §5, §6, §7, §8, §9

[3] = biological target: HER4 (Homo sapiens (Human), UniProt Q15303)
HER4, sequence (Q15303 26-1308): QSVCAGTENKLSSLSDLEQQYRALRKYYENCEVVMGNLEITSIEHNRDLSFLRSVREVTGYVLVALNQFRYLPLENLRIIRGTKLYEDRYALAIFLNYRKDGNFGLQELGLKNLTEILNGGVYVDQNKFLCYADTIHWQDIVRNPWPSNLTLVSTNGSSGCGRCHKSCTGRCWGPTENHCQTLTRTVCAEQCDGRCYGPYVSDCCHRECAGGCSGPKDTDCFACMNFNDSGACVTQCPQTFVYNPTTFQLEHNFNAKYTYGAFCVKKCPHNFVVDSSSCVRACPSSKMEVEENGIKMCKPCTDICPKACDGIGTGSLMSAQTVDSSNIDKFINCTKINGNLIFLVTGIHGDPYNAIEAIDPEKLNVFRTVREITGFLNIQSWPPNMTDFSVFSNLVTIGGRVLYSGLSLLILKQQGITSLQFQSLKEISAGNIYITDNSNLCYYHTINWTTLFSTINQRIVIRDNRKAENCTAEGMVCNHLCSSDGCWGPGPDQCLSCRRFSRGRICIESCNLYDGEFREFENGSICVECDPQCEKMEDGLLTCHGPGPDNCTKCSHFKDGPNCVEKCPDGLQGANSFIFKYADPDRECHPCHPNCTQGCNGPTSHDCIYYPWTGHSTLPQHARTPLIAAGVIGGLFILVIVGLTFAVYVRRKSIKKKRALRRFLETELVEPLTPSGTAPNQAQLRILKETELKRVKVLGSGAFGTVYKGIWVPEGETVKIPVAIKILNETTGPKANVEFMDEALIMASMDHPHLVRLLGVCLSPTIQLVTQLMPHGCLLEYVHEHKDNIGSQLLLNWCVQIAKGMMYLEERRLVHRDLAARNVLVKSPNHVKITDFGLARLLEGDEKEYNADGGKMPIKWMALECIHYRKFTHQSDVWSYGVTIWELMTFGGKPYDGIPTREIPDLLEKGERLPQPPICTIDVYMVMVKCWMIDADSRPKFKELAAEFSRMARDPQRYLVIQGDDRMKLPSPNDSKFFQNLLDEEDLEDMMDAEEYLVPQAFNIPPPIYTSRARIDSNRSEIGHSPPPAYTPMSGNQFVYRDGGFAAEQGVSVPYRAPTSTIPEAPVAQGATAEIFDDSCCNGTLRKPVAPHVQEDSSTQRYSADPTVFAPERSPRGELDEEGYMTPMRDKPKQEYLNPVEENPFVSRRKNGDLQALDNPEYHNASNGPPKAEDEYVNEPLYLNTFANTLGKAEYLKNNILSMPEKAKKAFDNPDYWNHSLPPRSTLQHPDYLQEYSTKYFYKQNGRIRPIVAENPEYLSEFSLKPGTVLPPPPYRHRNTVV
Method: as §1
HER4: human epidermal growth factor receptor 4 (Carna).
as §2, §3, §4, §5, §6, §7, §8, §9

C=CC(=O)Nc1cc2c(Nc3ccc(F)c(Cl)c3)ncnc2cc1OCC1COC2(CCN(C)CC2)C1 (stereo not shown) [Compound 6, N-[4-(3-chloro-4-fluorophenylamino)-7-((8-methyl-1-oxa-8-azaspiro[4.5]decan-3-yl)methoxy)quinazolin-6-yl]-acrylamide]
IC50 [1]: 1 nM
IC50 [2]: 7.1 nM
IC50 [3]: 1.4 nM

C=CC(=O)Nc1cc2c(Nc3ccc(F)c(Cl)c3)ncnc2cc1OCC1CCC2(CCN(C)CC2)O1 (stereo not shown) [Compound 7, N-[4-(3-chloro-4-fluorophenylamino)-7-(8-methyl-1-oxa-8-azaspiro[4.5]decan-2-ylmethoxy)quinazolin-6-yl]-acrylamide]
IC50 [2]: 4.3 nM
IC50 [3]: 1.7 nM

C=CC(=O)Nc1cc2c(Nc3ccc(F)c(Cl)c3)ncnc2cc1OCC[C@@H]1[C@H]2CN(C)C[C@@H]12 [Compound 8]
IC50 [2]: 6.5 nM
IC50 [3]: 3.4 nM

C=CC(=O)Nc1cc2c(Nc3ccc(F)c(Cl)c3)ncnc2cc1OCCC1C2CCC1CN(C)C2 (stereo not shown) [Compound 11, N-[4-(3-chloro-4-fluorophenylamino)-7-(2-(3-methyl-3-azabicyclo[3.2.1]octan-8-yl)ethoxy)quinazolin-6-yl]-acrylamide]
IC50 [1]: 0.8 nM
IC50 [2]: 12 nM
IC50 [3]: 8.3 nM

C=CC(=O)Nc1cc2c(Nc3ccc(F)c(Cl)c3)ncnc2cc1OCCC1CC12CCN(C)CC2 (stereo not shown) [Compound 14, N-[4-(3-chloro-4-fluorophenylamino)-7-(2-(6-methyl-6-azaspiro[2.5]octan-1-yl)ethoxy)quinazolin-6-yl]-acrylamide]
IC50 [1]: 0.39 nM
IC50 [2]: 2.6 nM
IC50 [3]: 1.2 nM

C=CC(=O)Nc1cc2c(Nc3ccc(F)c(Cl)c3)ncnc2cc1OCC1CC2(CCN(C)CC2)C1 [Compound 18, N-[4-(3-chloro-4-fluorophenylamino)-7-((7-methyl-7-azaspiro[3.5]nonan-2-yl)methoxy)quinazolin-6-yl]-acrylamide]
IC50 [1]: 1 nM
IC50 [2]: 6.5 nM
IC50 [3]: 1.9 nM

C=CC(=O)Nc1cc2c(Nc3ccc(F)c(Cl)c3)ncnc2cc1OCCC1CC2(CCN(C)CC2)C1 [Compound 19 hydrochloride, N-[4-(3-chloro-4-fluorophenylamino)-7-(2-(7-methyl-7-azaspiro[3.5]nonan-2-yl)ethoxy)quinazolin-6-yl]-acrylamide hydrochloride]
IC50 [1]: 0.56 nM
IC50 [2]: 3.1 nM
IC50 [3]: 3.7 nM
